Where two headings read alike, the source gives them in different places.
Test system: primary rat mixed cortical cells
Test: In vitro myelination assay (MBP positive myelin strands, fold myelin pixels above background)
Assay type: cell-based
Settings: Rattus norvegicus; for fold induction at 1 µM: 1.0 μM compound; for fold induction at 10 µM: 10.0 μM compound
Outline: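 Read-out is total MBP-positive myelin strand pixels per well, detected by custom ridge-tracing software and reported as fold over untreated baseline. Primary P1 rat mixed cortical cells received compound (1.0 or 10.0 μM) for 14 days, with medium half-replaced on days 6 and 10. Standard deviation was taken across all replicates.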

[1] = relative to baseline of no added compound, read-out: Fold myelin pixels above background, 1.0 μM
[2] = relative to baseline of no added compound, read-out: Fold myelin pixels above background, 10.0 μM
[3] = relative to baseline of no added compound, read-out: Fold myelin pixels above background
[4] = read-out: Fold myelin pixels above background relative to baseline of no added compound

Row | Structure (SMILES) | fold induction at 1 µM [1] | fold induction at 10 µM [2] | fold induction at 1 µM [3] | fold induction at 10 µM [3] | further results
1 | Fc1cc(-n2cnc(Nc3cc(C(F)F)cc(N4CCN(C5COC5)CC4)c3)n2)ccn1 [Compound 189, N-[3-(difluoromethyl)-5-[4-(oxetan-3-yl)piperazin-1-yl]phenyl]-1-(2-fluoro-4-pyridyl)-1,2,4-triazol-3-amine] | 100 to 1000 | ≤ 1 |  |  | 
2 | CCc1cc(Nc2ncn(-c3ccc(C#N)cc3)n2)cc(N2CCN(C3COC3)CC2)c1 [Compound 762, 4-[3-[3-ethyl-5-[4-(oxetan-3-yl)piperazin-1-yl]anilino]-1,2,4-triazol-1-yl]benzonitrile] |  |  | ≤ 1 | ≤ 1 | 
3 | Cc1cc(Nc2ncn(-c3cc(F)cc(F)c3)n2)cc(N2CCN(C3CCCC3)C(=O)C2)c1 [Compound 905, 1-cyclopentyl-4-[3-[[1-(3,5-difluorophenyl)-1,2,4-triazol-3-yl]amino]-5-methyl-phenyl]piperazin-2-one] |  |  |  |  | fold induction at 1 µM [4]: 1 to 10; fold induction at 10 µM [4]: 10 to 100
4 | Cc1cc(Nc2ncn(-c3cc(F)cc(F)c3)n2)cc(N2CCN(CC(C)O)CC2)c1 (stereo not drawn) [Compound 995, 1-[4-[3-[[1-(3,5-difluorophenyl)-1,2,4-triazol-3-yl]amino]-5-methyl-phenyl]piperazin-1-yl]propan-2-ol] |  |  |  |  | fold induction at 1 µM [4]: 10 to 100; fold induction at 10 µM [4]: ≤ 1
5 | Cc1cc(Nc2ncn(-c3cc(F)cc(F)c3)n2)cc(C2CCCN(C3CC3)C2)c1 (stereo not drawn) [Compound 466, N-[3-(1-cyclopropyl-3-piperidyl)-5-methyl-phenyl]-1-(3,5-difluorophenyl)-1,2,4-triazol-3-amine] |  |  | 100 to 1000 | ≤ 1 | 
6 | Cc1cc(Nc2ncn(-c3cc(F)c(F)cc3F)n2)cc(N2CCN(C3COC3)CC2)c1 [Compound 413, N-[3-methyl-5-[4-(oxetan-3-yl)piperazin-1-yl]phenyl]-1-(2,4,5-trifluorophenyl)-1,2,4-triazol-3-amine] |  |  | ≤ 1 | 100 to 1000 | 
7 | Cc1cc(Nc2ncn(-c3ccccc3)n2)cc(N2CCCN(C3CC3)CC2)c1 [Compound 337, N-[3-(4-cyclopropyl-1,4-diazepan-1-yl)-5-methyl-phenyl]-1-phenyl-1,2,4-triazol-3-amine] | 100 to 1000 | ≤ 1 |  |  | 
8 | Fc1cc(Nc2ncn(-c3cccc(F)c3)n2)cc(N2CCOCC2)c1 [Compound 158, N-(3-fluoro-5-morpholino-phenyl)-1-(3-fluorophenyl)-1,2,4-triazol-3-amine] | 10 to 100 | 100 to 1000 |  |  | 
9 | Fc1cc(F)cc(-n2cnc(Nc3cc(N4CCN(C5COC5)CC4)nc(C(F)(F)F)c3)n2)c1 [Compound 760, N-[1-(3,5-difluorophenyl)-1,2,4-triazol-3-yl]-2-[4-(oxetan-3-yl)piperazin-1-yl]-6-(trifluoromethyl)pyridin-4-amine] |  |  | 1 to 10 | ≤ 1 | 
10 | Cc1cc(Nc2ncn(-c3ccccc3)n2)cc(C2CCN(CC(F)F)C2)c1 (stereo not drawn) [Compound 273, N-[3-[1-(2,2-difluoroethyl)pyrrolidin-3-yl]-5-methyl-phenyl]-1-phenyl-1,2,4-triazol-3-amine] | 1000 to 10000 | ≤ 1 |  |  | 
11 | Fc1cc(-n2cnc(Nc3cc(C(F)F)cc(N4CCN(C5CC5)CC4)c3)n2)ccn1 [Compound 153, N-[3-(4-cyclopropylpiperazin-1-yl)-5-(difluoromethyl)phenyl]-1-(2-fluoro-4-pyridyl)-1,2,4-triazol-3-amine] | 100 to 1000 | 10 to 100 |  |  | 
12 | CC(C)Oc1cc(Nc2ncn(-c3cc(F)cc(F)c3)n2)cc(N2CCN(C3COC3)CC2)c1 [Compound 653, 1-(3,5-difluorophenyl)-N-[3-isopropoxy-5-[4-(oxetan-3-yl)piperazin-1-yl]phenyl]-1,2,4-triazol-3-amine] |  |  | 10 to 100 | ≤ 1 | 
13 | Cc1cc(Nc2ncn(-c3cc(F)cc(F)c3)n2)nc(OCC2COC2)c1 [Compound 1069, N-[1-(3,5-difluorophenyl)-1,2,4-triazol-3-yl]-4-methyl-6-(oxetan-3-ylmethoxy)pyridin-2-amine] |  |  |  |  | fold induction at 1 µM [4]: 1 to 10; fold induction at 10 µM [4]: 1 to 10
14 | Cc1cc(Nc2ncn(-c3cccc(C(F)F)c3)n2)cc(N2CCC(N3CCOCC3)CC2)c1 [Compound 725, 1-[3-(difluoromethyl)phenyl]-N-[3-methyl-5-(4-morpholino-1-piperidyl)phenyl]-1,2,4-triazol-3-amine] |  |  | 10 to 100 | 10 to 100 | 
15 | Clc1cc(Nc2ncn(-c3ccccc3)n2)cc(N2CCCC2)c1 [Compound 380, N-(3-chloro-5-pyrrolidin-1-yl-phenyl)-1-phenyl-1,2,4-triazol-3-amine] | 100 to 1000 | 10 to 100 |  |  | 
16 | Cc1cc(Nc2ncn(-c3cc(F)cc(F)c3)n2)cc(C2(C)CN(C3COC3)CCO2)c1 (stereo not drawn) [Compound 708, 1-(3,5-difluorophenyl)-N-[3-methyl-5-[2-methyl-4-(oxetan-3-yl)morpholin-2-yl]phenyl]-1,2,4-triazol-3-amine] |  |  | 1 to 10 | ≤ 1 | 
17 | Cc1cc(NCC2CN(C(=O)OC(C)(C)C)C2)cc(Nc2ncn(-c3cc(F)cc(F)c3)n2)c1 [Compound 1084, tert-butyl 3-[[3-[[1-(3,5-difluorophenyl)-1,2,4-triazol-3-yl]amino]-5-methyl-anilino]methyl]azetidine-1-carboxylate] |  |  |  |  | fold induction at 1 µM [4]: 10 to 100; fold induction at 10 µM [4]: 1 to 10
18 | Cc1cc(Nc2ncn(-c3cc(F)cc(F)c3)n2)cc(OC2CCOC2)c1 (stereo not drawn) [Compound 703, 1-(3,5-difluorophenyl)-N-(3-methyl-5-tetrahydrofuran-3-yloxy-phenyl)-1,2,4-triazol-3-amine] |  |  | 10 to 100 | 1 to 10 | 
19 | N#Cc1cc(Nc2ncn(-c3ccccc3)n2)cc(N2CCN(C3COC3)CC2)c1 [Compound 592, 3-[4-(oxetan-3-yl)piperazin-1-yl]-5-[(1-phenyl-1,2,4-triazol-3-yl)amino]benzonitrile] |  |  | 1 to 10 | ≤ 1 | 
20 | Cc1cc(Nc2ncn(-c3ccccc3)n2)cc(C2CCCN(C3COC3)C2)c1 (stereo not drawn) [Compound 248, N-[3-methyl-5-[1-(oxetan-3-yl)-3-piperidyl]phenyl]-1-phenyl-1,2,4-triazol-3-amine] | 100 to 1000 | 1 to 10 |  |  | 
21 | Cc1cc(Nc2ncn(-c3ccc(F)c(F)c3)n2)cc(OCC2(C)COC2)c1 [Compound 615, 1-(3,4-difluorophenyl)-N-[3-methyl-5-[(3-methyloxetan-3-yl)methoxy]phenyl]-1,2,4-triazol-3-amine] |  |  | 10 to 100 | 10 to 100 | 
22 | CCN(C)Cc1cc(F)cc(-n2cnc(Nc3cc(C)cc(N4CCN(C5COC5)CC4)c3)n2)c1 [Compound 187, 1-[3-[[ethyl(methyl)amino]methyl]-5-fluoro-phenyl]-N-[3-methyl-5-[4-(oxetan-3-yl)piperazin-1-yl]phenyl]-1,2,4-triazol-3-amine] | 100 to 1000 | ≤ 1 |  |  | 
23 | Cc1cc(Nc2ncn(-c3ccccc3)n2)cc(N2CCN(C(C)C)CC2)c1 [Compound 326, N-[3-(4-isopropylpiperazin-1-yl)-5-methyl-phenyl]-1-phenyl-1,2,4-triazol-3-amine] | 1000 to 10000 | ≤ 1 |  |  | 
24 | [2H]C1([2H])N(C(=O)C2CC2)C([2H])([2H])C([2H])([2H])N(c2cc(Nc3ncn(-c4cc(F)cc(F)c4)n3)cc(C(F)(F)F)c2)C1([2H])[2H] [Compound 883, cyclopropyl-[2,2,3,3,5,5,6,6-octadeuterio-4-[3-[[1-(3,5-difluorophenyl)-1,2,4-triazol-3-yl]amino]-5-(trifluoromethyl)phenyl]piperazin-1-yl]methanone] |  |  |  |  | fold induction at 1 µM [4]: 10 to 100; fold induction at 10 µM [4]: 1 to 10
25 | FC(F)c1cc(Nc2ncn(-c3ccccn3)n2)nc(N2CCN(C3COC3)CC2)c1 [Compound 532, 4-(difluoromethyl)-6-[4-(oxetan-3-yl)piperazin-1-yl]-N-[1-(2-pyridyl)-1,2,4-triazol-3-yl]pyridin-2-amine] |  |  | 10 to 100 | 10 to 100 | 
26 | Cc1cc(Nc2ncn(-c3cc(F)cc(F)c3)n2)c(F)c(N2CC(N3CCOCC3)C2)c1 [Compound 790, 1-(3,5-difluorophenyl)-N-[2-fluoro-5-methyl-3-(3-morpholinoazetidin-1-yl)phenyl]-1,2,4-triazol-3-amine] |  |  |  |  | fold induction at 1 µM [4]: 10 to 100; fold induction at 10 µM [4]: 10 to 100
27 | OC1(c2cc(F)cc(Nc3ncn(-c4cc(F)cc(F)c4)n3)c2)COC1 [Compound 775, 3-[3-[[1-(3,5-difluorophenyl)-1,2,4-triazol-3-yl]amino]-5-fluoro-phenyl]oxetan-3-ol] |  |  | 1 to 10 | 10 to 100 | 
28 | Cc1cc(Nc2ncn(-c3ccccn3)n2)cc(N2CCN(C)CC2)c1 [Compound 138, N-[3-methyl-5-(4-methylpiperazin-1-yl)phenyl]-1-(2-pyridyl)-1,2,4-triazol-3-amine] | 10 to 100 | 100 to 1000 |  |  | 
29 | CCc1cc(Nc2ncn(-c3cccc(OC)c3)n2)cc(N2CCN(C3COC3)CC2)c1 [Compound 432, N-[3-ethyl-5-[4-(oxetan-3-yl)piperazin-1-yl]phenyl]-1-(3-methoxyphenyl)-1,2,4-triazol-3-amine] |  |  | 100 to 1000 | 1 to 10 | 
30 | Cc1cc(Nc2ncn(-c3cc(F)cc(F)c3)n2)cc(N2CCC(N(C)C)CC2)c1 [Compound 948, 1-[3-[[1-(3,5-difluorophenyl)-1,2,4-triazol-3-yl]amino]-5-methyl-phenyl]-N,N-dimethyl-piperidin-4-amine] |  |  |  |  | fold induction at 1 µM [4]: 10 to 100; fold induction at 10 µM [4]: ≤ 1
